{"source": "patent US5679787A", "about": "“Process for isomerization of compound of aldose structure into compound of ketose structure, and isomerization agent or accelerator used therein” (priority 1992, dated 1997)", "key": {"[1]": {"tested_on": "glucose isomerase", "test": "Enzymatic isomerization of glucose into fructose in presence of organogermanium compound (Example 1)", "assay_type": "biochemical, Streptomyces griseofuscus S-41", "conditions": "60° C., pH 8.0, substrate solution 40% glucose and 1.2M organogermanium compound, blank 50%", "protocol": "A solution containing 40% glucose and 1.2M organogermanium compound was prepared according to the following procedure. 0.8 g of anhydrous glucose was dissolved in 0.8 ml of deionized water. To the solution was added, in small portions, 0.407 g of the organogermanium compound (1) as an isomerization accelerator of the present invention [a compound represented by formula (II) wherein n=1, R1 =R2 =R3 and X1 =OH] while the pH of the solution was maintained at very weak alkalinity, to completely dissolve the compound in the solution. Thereto was added 4.9 mg of magnesium sulfate, and the pH of the resulting mixture was adjusted to 8.0. Then, deionized water was added to make the total volume 2.0 ml, whereby a substrate solution was prepared.\nTwo other substrate solutions containing the organogermanium compounds (18) [a compound represented by formula (II) wherein n=1, R1 =R2 =H, R3 =NH2 and X1 =OH] and (23) [a compound represented by formula (II) wherein n=1, R1 =H, R2 =C6 H5, R3 =NH2 and X1 =OH], respectively, were prepared in the same manner as above except that the organogermanium compounds (18) and (23) were used in amounts of 0.443 g and 0.638 g, respectively (these amounts corresponded to 1.2M of germanium).\nAn isomerization enzyme (glucose isomerase) extracted from the cells of Streptomyces griseofuscus S-41 was purified according to a known method using an ion exchange column, a gel filtration column or the like, until a single band was obtained electrophoretically. The resulting purified enzyme was used as a standard enzyme.\nIn a small test tube were placed 0.7 ml of the above substrate solution, 0.1 ml of a 200 mM MOPS buffer solution (pH 8.0) and 0.2 ml of a solution containing the above-prepared standard enzyme (5.69 mg/ml). […] The amount of formed fructose in the microvial was determined by high-performance liquid chromatography using a column [LC7A, SCR-101 (N) manufactured by Shimadzu Corp.] to examine the change with time, of ratio of isomerization of glucose into fructose."}, "[2]": {"test": "Isomerization test at pH 10 (Example 4), arabinose", "conditions": "pH 10 with aqueous sodium hydroxide, 80° C., 3 hours; blank 2.75", "protocol": "(§1) The same isomerization test as in Example 2 was conducted with slight modifications.\n(§2) That is, 200 μl of one of various saccharide solutions and 200 μl of one of various organogermanium compound solutions were placed in a small test tube. The mixture was adjusted to pH 10 with an aqueous sodium hydroxide solution, after which the tube was placed in a water bath of 80° C. for a reaction. 3 hours later, the reaction was terminated and the amount of each saccharide isomerized was determined by high-performance liquid chromatography using 7A (a column) manufactured by Shimadzu Corp."}, "[3]": {"test": "Isomerization without enzyme (Example 3), mannose", "conditions": "remark (2): reaction time 6 h, initial pH 10.0-10.6"}, "[4]": {"test": "Isomerization test at pH 10 (Example 4), xylose", "conditions": "pH 10 with aqueous sodium hydroxide, 80° C., 3 hours; blank 5.59", "protocol": "as §1, §2"}, "[5]": {"test": "Isomerization without enzyme (Example 3), glucose", "conditions": "remark (1): initial pH 8.0-8.53", "protocol": "200 μl of the 14% or 28% glucose solution and 200 μl of the organogermanium compound solution (pH 8.00 or 8.53) were placed in a small test tube. Also, 200 μl of the 14% or 28% glucose solution and 200 μl of the weakly alkaline electrolytic water were placed in a small test tube. Each test tube was thoroughly shaken and then placed in a water bath of 80° C. to give rise to a reaction. […] Thereafter, the mixture was diluted 100-fold with deionized water to determine the amount of formed fructose and the amount of residual glucose by high-performance liquid chromatography using 7A (a column) manufactured by Shimadzu Corp. […]"}, "[6]": {"test": "Isomerization without enzyme (Example 3), lactose", "conditions": "remark (3): reaction time 6 h, initial pH 10.0-11.0"}, "[7]": {"test": "Toxicity, LD50 on oral administration to rats", "conditions": "rat, in vivo, orally administered to rats", "source_text": "(§3) The organogermanium compound used in the present invention has very low toxicity."}, "[8]": {"test": "Isomerization test at pH 10 (Example 4), ribose", "conditions": "pH 10 with aqueous sodium hydroxide, 80° C., 3 hours; blank 2.89", "protocol": "as §1, §2"}, "[9]": {"test": "Isomerization without enzyme (Example 3), maltose", "conditions": "remark (3): reaction time 6 h, initial pH 10.0-11.0"}, "[10]": {"test": "Isomerization test at pH 10 (Example 4), mannose", "conditions": "pH 10 with aqueous sodium hydroxide, 80° C., 3 hours; blank 12.48", "protocol": "as §1, §2"}, "[11]": {"test": "Isomerization without enzyme (Example 3), arabinose", "conditions": "remark (2):, initial pH 10.0-10.6"}, "[12]": {"test": "Isomerization without enzyme (Example 3), xylose", "conditions": "remark (2): reaction time 6 h, initial pH 10.0-10.6", "protocol": "[The procedure below names another target; the source says it served here with some conditions changed.] 200 μl of the 14% or 28% glucose solution and 200 μl of the organogermanium compound solution (pH 8.00 or 8.53) were placed in a small test tube. Also, 200 μl of the 14% or 28% glucose solution and 200 μl of the weakly alkaline electrolytic water were placed in a small test tube. Each test tube was thoroughly shaken and then placed in a water bath of 80° C. to give rise to a reaction. 1-3 hours later, 50 μl of the reaction mixture was added to 50 μl of 0.5N HClO4 to terminate the reaction. Thereafter, the mixture was diluted 100-fold with deionized water to determine the amount of formed fructose and the amount of residual glucose by high-performance liquid chromatography using 7A (a column) manufactured by Shimadzu Corp.\nOther compounds represented by formula (I) were subjected to 3-hour isomerization in the same manner as in Example 2."}, "[13]": {"test": "Toxicity, LD50 on oral administration to mice", "conditions": "mouse, in vivo, orally administered to mice", "source_text": "as §3"}, "[14]": {"test": "Isomerization without enzyme (Example 3), ribose", "conditions": "NaOH; remark (2): reaction time 6 h, initial pH 10.0-10.6; blank 3.9-19.5%"}, "[15]": {"test": "Isomerization test at pH 10 (Example 4), maltose", "conditions": "pH 10 with aqueous sodium hydroxide, 80° C., 3 hours; blank 12.59", "protocol": "as §1, §2"}, "[16]": {"test": "Isomerization test at pH 10 (Example 4), galactose", "conditions": "pH 10 with aqueous sodium hydroxide, 80° C., 3 hours; blank 7.60", "protocol": "as §1, §2"}, "[17]": {"conditions": "electrolytic water, blank 0.4-1.2%"}, "[18]": {"conditions": "electrolytic water, blank 0-0.4%"}}, "data": [{"smiles": "O=C(O)C[CH2][Ge](=[O])[O][Ge](=[O])[CH2]CC(=O)O", "note": "[Compound 1]", "values": [{"measurement": "isomerization ratio in equilibrium", "setting": "[1]", "value": 75, "unit": "%"}, {"measurement": "Isomerization (%) Arabinose", "setting": "[2]", "value": 20.87, "unit": "%"}, {"measurement": "Isomerization ratio Mannose NaOH", "setting": "[3]; NaOH, blank 3.9-19.5%", "value": 24.3, "unit": "%"}, {"measurement": "Isomerization ratio Mannose Electrolytic water", "setting": "[3]; [17]", "value": 13.1, "unit": "%"}, {"measurement": "Isomerization (%) Xylose", "setting": "[4]", "value": 40.66, "unit": "%"}, {"measurement": "Isomerization ratio Glucose NaOH", "setting": "[5]; NaOH, blank 32.3%", "value": 98.9, "unit": "%"}, {"measurement": "Isomerization ratio Glucose Electrolytic water", "setting": "[5]; electrolytic water, blank 2.1-3.1%", "value": 94.7, "unit": "%"}, {"measurement": "Isomerization ratio Lactose NaOH", "setting": "[6]; NaOH, blank 34.0-38.6%", "value": 70.3, "unit": "%"}, {"measurement": "Isomerization ratio Lactose Electrolytic water", "setting": "[6]; [18]", "value": 58.3, "unit": "%"}, {"measurement": "LD50", "setting": "[7]", "value": "≥ 10000", "unit": "mg/kg"}, {"measurement": "Isomerization (%) Ribose", "setting": "[8]", "value": 27.76, "unit": "%"}, {"measurement": "Isomerization ratio Maltose NaOH", "setting": "[9]; NaOH, blank 34.0-38.6%", "value": 68.7, "unit": "%"}, {"measurement": "Isomerization ratio Maltose Electrolytic water", "setting": "[9]; [18]", "value": 43.2, "unit": "%"}, {"measurement": "Isomerization (%) Mannose", "setting": "[10]", "value": 37.23, "unit": "%"}, {"measurement": "Isomerization ratio Arabinose NaOH", "setting": "[11]; NaOH, blank 3.9-19.5%", "value": 22.6, "unit": "%"}, {"measurement": "Isomerization ratio Arabinose Electrolytic water", "setting": "[11]; [17]", "value": 12.6, "unit": "%"}, {"measurement": "Isomerization ratio Xylose NaOH", "setting": "[12]; NaOH, blank 3.9-19.5%", "value": 30.3, "unit": "%"}, {"measurement": "Isomerization ratio Xylose Electrolytic water", "setting": "[12]; [17]", "value": 19.6, "unit": "%"}, {"measurement": "LD50", "setting": "[13]", "value": "≥ 6000", "unit": "mg/kg"}, {"measurement": "Isomerization ratio Ribose NaOH", "setting": "[14]", "value": 44.7, "unit": "%"}, {"measurement": "Isomerization (%) Maltose", "setting": "[15]", "value": 78.91, "unit": "%"}, {"measurement": "Isomerization (%) Galactose", "setting": "[16]", "value": 38.67, "unit": "%"}]}]}
